In ChEMBL document CHEMBL5291721, “A preclinical secondary pharmacology resource illuminates target-adverse drug reaction associations of marketed drugs” (Nat Commun, 2023) one finds AC50 data, which are given here for nine compounds.

Test [1] has as its target Acetylcholinesterase (Homo sapiens, UniProt P22303). The format is functional.
Test [2] deals with T1, Alpha-1A adrenergic receptor (Homo sapiens, UniProt P35348).
T1 sequence (P35348 whole entry): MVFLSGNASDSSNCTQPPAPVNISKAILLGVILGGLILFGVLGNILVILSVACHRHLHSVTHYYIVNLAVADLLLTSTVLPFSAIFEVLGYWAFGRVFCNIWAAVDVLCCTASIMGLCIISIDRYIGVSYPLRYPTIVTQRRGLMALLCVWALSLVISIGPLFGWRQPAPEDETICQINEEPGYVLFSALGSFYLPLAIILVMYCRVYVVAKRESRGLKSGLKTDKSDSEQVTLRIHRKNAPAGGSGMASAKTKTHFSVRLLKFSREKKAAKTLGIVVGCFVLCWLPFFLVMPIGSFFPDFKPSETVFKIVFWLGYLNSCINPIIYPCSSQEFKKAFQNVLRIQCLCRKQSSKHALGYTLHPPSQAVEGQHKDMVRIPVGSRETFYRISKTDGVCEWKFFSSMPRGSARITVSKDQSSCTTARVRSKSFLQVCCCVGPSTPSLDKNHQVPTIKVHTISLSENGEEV
The format is functional, cell-based.

Test [3] concerns the target T2, Alpha-2A adrenergic receptor (Homo sapiens, UniProt P08913).
T2 sequence (P08913 whole entry): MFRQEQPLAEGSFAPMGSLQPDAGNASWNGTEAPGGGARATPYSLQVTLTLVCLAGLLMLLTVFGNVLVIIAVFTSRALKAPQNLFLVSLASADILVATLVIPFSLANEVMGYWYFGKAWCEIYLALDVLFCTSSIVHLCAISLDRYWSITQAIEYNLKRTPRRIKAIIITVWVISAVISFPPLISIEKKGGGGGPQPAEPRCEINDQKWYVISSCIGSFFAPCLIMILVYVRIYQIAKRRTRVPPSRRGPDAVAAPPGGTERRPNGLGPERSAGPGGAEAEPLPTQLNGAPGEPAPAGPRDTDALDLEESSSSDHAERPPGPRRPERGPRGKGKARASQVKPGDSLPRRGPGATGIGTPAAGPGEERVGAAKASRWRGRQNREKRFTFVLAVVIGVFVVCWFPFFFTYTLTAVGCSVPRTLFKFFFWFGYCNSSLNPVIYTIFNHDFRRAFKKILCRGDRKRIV

Test [4] addresses T3, Muscarinic acetylcholine receptor M2 (Homo sapiens, UniProt P08172).
T3 sequence (P08172 whole entry): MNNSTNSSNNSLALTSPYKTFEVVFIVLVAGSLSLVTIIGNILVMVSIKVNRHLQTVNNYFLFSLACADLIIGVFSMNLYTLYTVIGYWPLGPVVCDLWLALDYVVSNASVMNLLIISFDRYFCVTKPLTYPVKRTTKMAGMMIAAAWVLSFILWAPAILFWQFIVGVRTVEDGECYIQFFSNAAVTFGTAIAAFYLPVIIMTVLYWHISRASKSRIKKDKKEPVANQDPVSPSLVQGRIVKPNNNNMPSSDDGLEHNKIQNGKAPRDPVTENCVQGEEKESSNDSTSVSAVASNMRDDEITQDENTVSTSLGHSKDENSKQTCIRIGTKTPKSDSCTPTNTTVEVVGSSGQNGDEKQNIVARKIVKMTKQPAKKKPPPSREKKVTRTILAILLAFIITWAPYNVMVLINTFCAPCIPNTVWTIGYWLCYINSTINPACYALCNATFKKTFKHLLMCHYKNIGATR

The target in test [5] is D(1A) dopamine receptor (Homo sapiens, UniProt P21728).
D(1A) dopamine receptor, sequence (P21728 whole entry): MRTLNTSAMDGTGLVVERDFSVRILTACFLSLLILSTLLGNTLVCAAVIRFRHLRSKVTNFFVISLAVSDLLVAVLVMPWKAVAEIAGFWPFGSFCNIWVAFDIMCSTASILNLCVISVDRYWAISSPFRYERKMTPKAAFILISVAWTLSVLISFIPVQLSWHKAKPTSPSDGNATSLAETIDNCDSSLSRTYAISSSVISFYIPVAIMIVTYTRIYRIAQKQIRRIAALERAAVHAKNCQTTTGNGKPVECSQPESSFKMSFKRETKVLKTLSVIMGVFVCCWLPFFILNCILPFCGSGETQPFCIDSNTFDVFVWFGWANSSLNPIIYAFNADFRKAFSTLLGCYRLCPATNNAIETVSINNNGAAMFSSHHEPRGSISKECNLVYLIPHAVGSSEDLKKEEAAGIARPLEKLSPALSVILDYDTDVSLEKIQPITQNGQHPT
Test [6] has as its target Prothrombin (Homo sapiens, UniProt P00734). The format is functional.
Test [7] concerns the target Histamine H3 receptor (Homo sapiens, UniProt Q9Y5N1).
The target of test [8] is Voltage-gated inwardly rectifying potassium channel KCNH2 (Homo sapiens, UniProt Q12809). The test is classed as functional. The following applies: read-out: AC50.
Voltage-gated inwardly rectifying potassium channel KCNH2, sequence (Q12809 whole entry): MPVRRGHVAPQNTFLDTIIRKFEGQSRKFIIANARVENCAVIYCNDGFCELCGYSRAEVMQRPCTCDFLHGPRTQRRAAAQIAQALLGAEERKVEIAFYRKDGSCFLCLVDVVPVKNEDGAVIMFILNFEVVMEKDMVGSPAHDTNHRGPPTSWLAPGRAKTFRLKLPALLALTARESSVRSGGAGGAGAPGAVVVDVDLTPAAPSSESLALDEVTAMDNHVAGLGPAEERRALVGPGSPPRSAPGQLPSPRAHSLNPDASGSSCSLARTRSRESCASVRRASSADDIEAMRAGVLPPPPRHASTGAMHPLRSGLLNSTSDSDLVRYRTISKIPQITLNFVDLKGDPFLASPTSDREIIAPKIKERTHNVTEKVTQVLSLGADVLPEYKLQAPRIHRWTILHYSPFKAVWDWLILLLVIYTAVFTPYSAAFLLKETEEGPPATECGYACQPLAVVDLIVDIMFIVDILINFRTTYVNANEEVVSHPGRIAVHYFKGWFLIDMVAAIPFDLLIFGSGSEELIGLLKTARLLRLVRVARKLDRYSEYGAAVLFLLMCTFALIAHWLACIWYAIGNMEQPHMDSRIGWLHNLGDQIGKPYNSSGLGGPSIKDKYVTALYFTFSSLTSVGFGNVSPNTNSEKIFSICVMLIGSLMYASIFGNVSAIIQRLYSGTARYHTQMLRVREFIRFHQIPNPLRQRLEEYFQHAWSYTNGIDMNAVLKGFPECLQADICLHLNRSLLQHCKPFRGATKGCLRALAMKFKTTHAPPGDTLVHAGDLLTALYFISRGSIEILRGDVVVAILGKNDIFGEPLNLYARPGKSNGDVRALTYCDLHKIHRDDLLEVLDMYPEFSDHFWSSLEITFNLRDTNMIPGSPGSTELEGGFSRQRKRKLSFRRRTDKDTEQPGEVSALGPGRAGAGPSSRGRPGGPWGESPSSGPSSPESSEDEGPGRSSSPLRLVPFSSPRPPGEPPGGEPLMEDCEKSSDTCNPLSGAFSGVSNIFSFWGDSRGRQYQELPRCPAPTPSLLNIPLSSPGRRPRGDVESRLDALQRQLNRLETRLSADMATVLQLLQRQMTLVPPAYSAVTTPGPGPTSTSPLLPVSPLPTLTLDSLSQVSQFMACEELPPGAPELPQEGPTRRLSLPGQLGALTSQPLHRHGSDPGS
The target in test [9] is Mu-type opioid receptor (Homo sapiens, UniProt P35372).
Mu-type opioid receptor, sequence (P35372 whole entry): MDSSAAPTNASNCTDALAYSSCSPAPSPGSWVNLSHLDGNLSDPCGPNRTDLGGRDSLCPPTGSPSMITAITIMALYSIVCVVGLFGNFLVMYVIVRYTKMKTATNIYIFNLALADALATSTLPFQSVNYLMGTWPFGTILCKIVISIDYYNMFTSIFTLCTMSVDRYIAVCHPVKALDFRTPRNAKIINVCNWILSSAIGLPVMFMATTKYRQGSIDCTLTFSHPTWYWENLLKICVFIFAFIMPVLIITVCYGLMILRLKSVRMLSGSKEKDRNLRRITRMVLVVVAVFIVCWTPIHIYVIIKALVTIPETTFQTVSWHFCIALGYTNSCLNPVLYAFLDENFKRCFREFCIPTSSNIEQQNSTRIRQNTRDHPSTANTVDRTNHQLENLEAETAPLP
Test [10] addresses cGMP-inhibited 3',5'-cyclic phosphodiesterase 3A (Homo sapiens, UniProt Q14432). The format is functional.
Test [11] concerns the target Prostaglandin G/H synthase 1 (Homo sapiens, UniProt P23219). The test is classed as functional.
Test [12] concerns the target Sodium-dependent dopamine transporter (Homo sapiens, UniProt Q01959).
The target in test [13] is Sodium-dependent serotonin transporter (Homo sapiens, UniProt P31645).
Sodium-dependent serotonin transporter, sequence (P31645 whole entry): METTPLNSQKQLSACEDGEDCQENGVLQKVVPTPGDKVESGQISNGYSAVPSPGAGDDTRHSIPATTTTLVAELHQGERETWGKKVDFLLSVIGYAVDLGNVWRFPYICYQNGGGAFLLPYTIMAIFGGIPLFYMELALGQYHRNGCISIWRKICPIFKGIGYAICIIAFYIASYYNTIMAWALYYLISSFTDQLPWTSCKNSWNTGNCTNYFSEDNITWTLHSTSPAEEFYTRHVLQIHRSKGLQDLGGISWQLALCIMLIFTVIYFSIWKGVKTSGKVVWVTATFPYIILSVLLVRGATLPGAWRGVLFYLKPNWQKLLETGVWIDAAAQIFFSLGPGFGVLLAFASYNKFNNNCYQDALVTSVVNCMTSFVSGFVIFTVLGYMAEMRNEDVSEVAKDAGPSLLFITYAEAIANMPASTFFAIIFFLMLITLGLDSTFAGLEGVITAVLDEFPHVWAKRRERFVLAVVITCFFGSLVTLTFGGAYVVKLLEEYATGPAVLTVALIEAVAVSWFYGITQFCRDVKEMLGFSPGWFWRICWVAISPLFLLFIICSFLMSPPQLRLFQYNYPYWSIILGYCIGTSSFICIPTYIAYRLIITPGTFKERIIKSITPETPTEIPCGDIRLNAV
Test [14] concerns the target T4, Thromboxane A2 receptor (Homo sapiens, UniProt P21731).
T4 sequence (P21731 whole entry): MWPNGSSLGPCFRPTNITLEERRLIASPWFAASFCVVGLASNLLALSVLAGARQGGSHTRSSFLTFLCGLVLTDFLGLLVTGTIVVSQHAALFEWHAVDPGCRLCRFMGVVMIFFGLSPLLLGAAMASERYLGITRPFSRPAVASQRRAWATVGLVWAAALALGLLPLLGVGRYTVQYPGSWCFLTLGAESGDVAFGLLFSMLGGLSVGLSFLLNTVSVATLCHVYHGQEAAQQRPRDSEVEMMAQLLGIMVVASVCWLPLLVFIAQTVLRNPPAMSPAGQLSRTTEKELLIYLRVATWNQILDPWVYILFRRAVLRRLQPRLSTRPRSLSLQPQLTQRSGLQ
The format is functional, cell-based.

Test [15] has as its target T4, Thromboxane A2 receptor. The test is classed as functional, cell-based. This is another data set of the same source.

SMILES strings stand for the structures.
Also: assay procedure not described here.

Sodium-dependent dopamine transporter, sequence (Q01959 whole entry): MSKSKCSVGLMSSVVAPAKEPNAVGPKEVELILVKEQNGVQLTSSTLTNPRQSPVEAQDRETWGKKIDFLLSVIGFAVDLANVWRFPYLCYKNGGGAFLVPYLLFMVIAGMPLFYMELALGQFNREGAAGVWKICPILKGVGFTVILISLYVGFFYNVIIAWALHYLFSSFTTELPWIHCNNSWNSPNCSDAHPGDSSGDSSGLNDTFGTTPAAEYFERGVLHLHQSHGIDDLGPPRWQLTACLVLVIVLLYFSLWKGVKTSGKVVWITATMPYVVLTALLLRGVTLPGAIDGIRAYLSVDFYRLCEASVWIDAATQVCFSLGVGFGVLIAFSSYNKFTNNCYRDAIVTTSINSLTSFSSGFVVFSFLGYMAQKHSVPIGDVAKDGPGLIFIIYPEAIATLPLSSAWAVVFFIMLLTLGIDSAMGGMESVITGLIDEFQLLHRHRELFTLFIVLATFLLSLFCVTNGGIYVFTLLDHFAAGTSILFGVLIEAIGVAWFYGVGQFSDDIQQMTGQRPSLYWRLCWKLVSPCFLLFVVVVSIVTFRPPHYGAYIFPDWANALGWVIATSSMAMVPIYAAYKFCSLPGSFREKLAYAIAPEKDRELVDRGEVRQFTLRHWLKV
Histamine H3 receptor, sequence (Q9Y5N1 whole entry): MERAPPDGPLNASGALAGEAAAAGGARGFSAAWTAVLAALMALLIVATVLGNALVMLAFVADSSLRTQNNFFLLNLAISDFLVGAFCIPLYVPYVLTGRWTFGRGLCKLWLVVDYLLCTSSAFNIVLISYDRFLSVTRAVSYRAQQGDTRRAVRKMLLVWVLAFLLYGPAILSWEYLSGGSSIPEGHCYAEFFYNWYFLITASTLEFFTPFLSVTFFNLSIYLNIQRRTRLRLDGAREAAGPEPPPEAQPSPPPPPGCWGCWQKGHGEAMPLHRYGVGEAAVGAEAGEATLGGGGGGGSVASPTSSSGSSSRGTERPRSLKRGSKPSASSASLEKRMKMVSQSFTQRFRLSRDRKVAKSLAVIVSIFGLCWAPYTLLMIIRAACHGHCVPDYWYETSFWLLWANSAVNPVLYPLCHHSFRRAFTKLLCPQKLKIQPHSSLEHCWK
Acetylcholinesterase, sequence (P22303 whole entry): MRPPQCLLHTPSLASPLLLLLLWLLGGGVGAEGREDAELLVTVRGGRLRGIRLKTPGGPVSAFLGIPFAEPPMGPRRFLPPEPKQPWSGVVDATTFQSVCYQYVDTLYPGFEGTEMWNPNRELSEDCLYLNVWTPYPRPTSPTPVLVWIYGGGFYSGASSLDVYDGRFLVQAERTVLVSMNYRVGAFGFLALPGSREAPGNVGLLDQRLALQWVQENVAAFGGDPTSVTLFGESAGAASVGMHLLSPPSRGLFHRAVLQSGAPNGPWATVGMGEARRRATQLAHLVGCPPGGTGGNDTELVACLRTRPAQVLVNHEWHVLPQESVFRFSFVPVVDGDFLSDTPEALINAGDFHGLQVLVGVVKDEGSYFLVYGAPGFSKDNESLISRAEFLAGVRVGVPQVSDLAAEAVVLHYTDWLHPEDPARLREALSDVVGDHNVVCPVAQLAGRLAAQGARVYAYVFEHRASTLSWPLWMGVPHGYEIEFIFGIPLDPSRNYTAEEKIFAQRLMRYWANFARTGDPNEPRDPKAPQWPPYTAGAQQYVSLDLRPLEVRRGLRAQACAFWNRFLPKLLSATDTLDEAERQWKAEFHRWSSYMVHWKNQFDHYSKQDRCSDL
Prostaglandin G/H synthase 1, sequence (P23219 whole entry): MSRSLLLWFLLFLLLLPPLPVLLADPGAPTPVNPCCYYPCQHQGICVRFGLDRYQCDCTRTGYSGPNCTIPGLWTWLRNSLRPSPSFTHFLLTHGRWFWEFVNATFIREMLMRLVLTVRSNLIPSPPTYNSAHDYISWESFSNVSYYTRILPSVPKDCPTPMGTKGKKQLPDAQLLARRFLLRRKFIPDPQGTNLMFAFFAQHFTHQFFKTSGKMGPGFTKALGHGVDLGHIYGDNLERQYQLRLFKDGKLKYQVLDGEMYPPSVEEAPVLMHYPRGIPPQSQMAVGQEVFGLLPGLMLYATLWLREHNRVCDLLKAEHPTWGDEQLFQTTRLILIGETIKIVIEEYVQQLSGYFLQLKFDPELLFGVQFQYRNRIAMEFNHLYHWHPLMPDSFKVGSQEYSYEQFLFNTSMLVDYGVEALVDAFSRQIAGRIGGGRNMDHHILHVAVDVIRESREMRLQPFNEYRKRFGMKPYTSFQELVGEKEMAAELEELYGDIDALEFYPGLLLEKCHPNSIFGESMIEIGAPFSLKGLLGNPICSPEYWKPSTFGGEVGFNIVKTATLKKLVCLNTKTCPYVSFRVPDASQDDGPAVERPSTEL

One may read the AC50 as the concentration at which the activity in the assay is half-maximal. Take `O=[N+]([O-])O[C@H]1CO[C@H]2[C@@H]1OC[C@H]2O[N+](=O)[O-]` [ISOSORBIDE DINITRATE]: the AC50 in [1], in test [2], in test [3], in test [4], in test [5] and in test [6] was above 30 µM throughout. Besides, the AC50 in test [7], in test [8], in test [9], in test [10], in [11] and in test [12] was above 30 µM in each case. Moreover, the AC50 in [13], in [14] and in test [15] was above 30 µM in each case.

Regarding `NC(=O)NCCC[C@H](N)C(=O)O` [L-CITRULLINE], the AC50 in test [1], in test [2], in [3], in test [4], in test [5] and in test [6] was above 30 µM each time. Besides, the AC50 in [7], in test [8], in test [9], in test [10], in test [11] and in test [12] was above 30 µM each time. The AC50 in [13], in [14] and in test [15] was above 30 µM in each case.

Take `CC(=O)O[C@H]1C[C@H](O[C@H]2[C@@H](O)C[C@H](O[C@H]3[C@@H](O)C[C@H](O[C@H]4CC[C@@]5(C)[C@H](CC[C@@H]6[C@@H]5C[C@@H](O)[C@]5(C)[C@@H](C7=CC(=O)OC7)CC[C@]65O)C4)O[C@@H]3C)O[C@@H]2C)O[C@H](C)[C@H]1O[C@@H]1O[C@H](CO)[C@@H](O)[C@H](O)[C@H]1O` [LANATOSIDE C]: the AC50 in [1], in [2], in [3], in [4], in [5] and in test [6] was above 30 µM each time. Also, the AC50 in test [7], in test [8], in [9], in test [10], in [11] and in [12] was above 30 µM each time. In addition, the AC50 in [13], in test [14] and in [15] was above 30 µM each time.

As to `Nc1nc(N)nc(Nc2ccc([As]3SCC(CO)S3)cc2)n1` (stereo not given) [MELARSOPROL], the AC50 in [1], in test [2], in test [3], in [4], in test [5] and in test [6] was above 30 µM throughout. In addition, the concentration at half-maximal activity (AC50) in [7] is above 30 µM; in test [8], above 10 µM; in test [9], above 30 µM; in [10], above 30 µM; in test [11], above 30 µM; in test [12], 29.2 µM. Besides, the AC50 in test [13], in test [14] and in test [15] was above 30 µM in each case.

Turning to `Cc1cc(CCN2CCN(c3cccc(Cl)c3)CC2)n[nH]1` [MEPIPRAZOLE], the AC50 was above 30 µM in test [1]; 0.43 µM in test [2]; 4.52 µM in [3]; above 30 µM in [4]; 0.591 µM in [5]; above 30 µM in test [6]. The AC50 was above 30 µM in test [7]; 2.71 µM in [8]; 15.7 µM in [9]; above 30 µM in [10]; above 30 µM in test [11]; 8.04 µM in [12]. The AC50 in test [13] was 3.8 µM; in test [14], above 30 µM; in test [15] it was above 30 µM.

For `CC[N+](C)(CC)CCOC(=O)C1c2ccccc2Oc2ccccc21` [METHANTHELINE], the AC50 in test [1] is above 30 µM; in [2] it was above 30 µM; in test [3], above 30 µM; in [4] it was 0.0126 µM; in test [5], above 30 µM; in [6], above 30 µM. Also, the AC50 in test [7] is above 30 µM; in test [8], 11 µM; in test [9], above 30 µM; in test [10], above 30 µM; in test [11] it was above 30 µM; in test [12] it was above 30 µM. The AC50 in [13], in test [14] and in [15] was above 30 µM in each case.

As to `CO[C@H]1[C@@H](O)C[C@H](O[C@H]2[C@@H](O)C[C@H](O[C@H]3[C@@H](O)C[C@H](O[C@H]4CC[C@@]5(C)[C@H](CC[C@@H]6[C@@H]5C[C@@H](O)[C@]5(C)[C@@H](C7=CC(=O)OC7)CC[C@]65O)C4)O[C@@H]3C)O[C@@H]2C)O[C@@H]1C` [METILDIGOXIN], the half-maximal activity concentration (AC50) in [1], in test [2], in [3], in test [4], in [5] and in test [6] was above 30 µM in each case. The AC50 in [7], in test [8], in test [9], in test [10], in [11] and in test [12] was above 30 µM throughout. Also, the AC50 in test [13], in test [14] and in test [15] was above 30 µM throughout.

`CCOC(=O)[C@H](CCc1ccccc1)N[C@@H](C)C(=O)N1Cc2cc(OC)c(OC)cc2C[C@H]1C(=O)O` [MOEXIPRIL]: the AC50 in test [1], in test [2], in test [3], in test [4], in test [5] and in test [6] was above 30 µM throughout. The AC50 is above 30 µM in test [7]; above 30 µM in [8]; above 30 µM in [9]; 25.4 µM in test [10]; above 30 µM in test [11]; above 30 µM in test [12]. Also, the AC50 in test [13], in test [14] and in test [15] was above 30 µM throughout.

Take `CCN(CC)CCOC(=O)C(Cc1cccc2ccccc12)CC1CCCO1` (stereo not given) [NAFRONYL]: the AC50 is above 30 µM in test [1]; above 30 µM in test [2]; above 30 µM in test [3]; 0.199 µM in test [4]; 23.5 µM in test [5]; above 30 µM in [6]. Further, the AC50 in [7] is above 30 µM; in [8], 6.9 µM; in test [9], 7.16 µM; in test [10], above 30 µM; in test [11], above 30 µM; in test [12] it was above 30 µM. For the same compound, the results for the AC50 in test [13], in [14] and in test [15] were 28.4 µM, above 30 µM and above 30 µM, respectively.
